Measurements published in the supplement of paper PMC10307832.

How the values were obtained:
Assay in all cases: relative viability (nuclei count vs DMSO), 5 days (fraction); higher = more cells survive
BMX-IN-1 + Trametinib = compound: C=CC(=O)Nc1cc(-n2c(=O)ccc3cnc4ccc(-c5ccc(NS(C)(=O)=O)cc5)cc4c32)ccc1C [BMX-IN-1] + CC(=O)Nc1cccc(-n2c(=O)n(C3CC3)c(=O)c3c(Nc4ccc(I)cc4F)n(C)c(=O)c(C)c32)c1 [Trametinib] (partner 0.02 µM)
In short: (§1)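 Each reported value is a median over duplicate plates. It expresses relative viability: treated-well nuclei count divided by vehicle-well nuclei count. Lung cancer cell lines in 1536-well plates were dosed by pin tool a day after seeding, alone with one drug or with a fixed anchor-drug dose plus five library-drug doses (not always all listed) in √10 steps, and nuclei were counted after 5 days.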

BMX-IN-1 + Linsitinib = compound: C=CC(=O)Nc1cc(-n2c(=O)ccc3cnc4ccc(-c5ccc(NS(C)(=O)=O)cc5)cc4c32)ccc1C [BMX-IN-1] + C[C@]1(O)C[C@@H](c2nc(-c3ccc4ccc(-c5ccccc5)nc4c3)c3c(N)nccn32)C1 [Linsitinib] (partner 1 µM)
In short: as §1

PAC-1 + Trametinib = compound: C=CCc1cccc(/C=N/NC(=O)CN2CCN(Cc3ccccc3)CC2)c1O [PAC-1] + CC(=O)Nc1cccc(-n2c(=O)n(C3CC3)c(=O)c3c(Nc4ccc(I)cc4F)n(C)c(=O)c(C)c32)c1 [Trametinib] (partner 0.02 µM)
In short: as §1

SK-MES-1
relative viability (BMX-IN-1 + Trametinib; first compound 0.02 µM): 0.603 | relative viability (BMX-IN-1 + Trametinib; first compound 0.2 µM): 0.542 | relative viability (BMX-IN-1 + Trametinib; first compound 0.6325 µM): 0.561 | relative viability (BMX-IN-1 + Trametinib; first compound 2 µM): 0.537 | relative viability (BMX-IN-1 + Linsitinib; first compound 0.02 µM): 1.11 | relative viability (BMX-IN-1 + Linsitinib; first compound 0.2 µM): 1.06 | relative viability (BMX-IN-1 + Linsitinib; first compound 0.6325 µM): 1.15 | relative viability (BMX-IN-1 + Linsitinib; first compound 2 µM): 1.07 | relative viability (PAC-1 + Trametinib; first compound 0.02 µM): 0.498 | relative viability (PAC-1 + Trametinib; first compound 0.06325 µM): 0.529 | relative viability (PAC-1 + Trametinib; first compound 0.2 µM): 0.543 | relative viability (PAC-1 + Trametinib; first compound 2 µM): 0.622
